In the C3SDB collision cross section collection:

Settings: instrument: DT, stepped-field

SMILES | collision cross section (N2) ([M+H]+) [Å²] | collision cross section (N2) ([M+Na]+) [Å²] | collision cross section (N2) ([M+2Na-H]+) [Å²] | other results
CCCCCCCCCCCCCCCCCC(=O)N[C@@H](CO[C@@H]1O[C@H](CO)[C@@H](O)C(O)C1O)[C@H](O)CCCCCCCCCCCCCCC (some centres undefined) [GlcCer(36:00)] | 284.59 |  |  | 
CCCCCCCCCCCCC=CC[C@@H](O)[C@H](CO[C@@H]1O[C@H](CO)[C@@H](O)C(O)C1O)NC(=O)CC=CCCCCCCCCCCCCCC (some centres undefined) [GlcCer(36:02)] | 281.37 | 281.52 |  | 
CCCCCCCCCCCCC=CC[C@@H](O)[C@H](CO[C@@H]1O[C@H](CO)[C@@H](O)C(O)C1O)NC(=O)CCCCCCCCCCCCCCCCCCCC (some centres undefined) [GlcCer(39:01)] |  | 291.95 |  | 
CCCCCCCCCCCCC=CC[C@@H](O)[C@H](CO[C@@H]1O[C@H](CO)[C@@H](O)C(O)C1O)NC(=O)CC=CCC=CCCCCCCCCCCCCCCC (some centres undefined) [GlcCer(40:03)] |  | 290.28 |  | 
CCCCCCCCCCCCCCCCCCCCCCCC(=O)N[C@@H](CO[C@@H]1O[C@H](CO)[C@@H](O)C(O)C1O)[C@H](O)CCCCCCCCCCCCCCC (some centres undefined) [GlcCer(42:00)] | 302.3 | 303.14 |  | 
CCCCCCCCCCCCC=CC[C@@H](O)[C@H](CO[C@@H]1O[C@H](CO)[C@@H](O)C(O)C1O)NC(=O)CC=CCCCCCCCCCCCCCCCCCCCC (some centres undefined) [GlcCer(42:02)] | 299.26 | 299.53 |  | collision cross section (N2) ([M+Cl]-): 298.77 Å²; collision cross section (N2) ([M+H-H2O]+): 296.4 Å²; collision cross section (N2) ([M+HCOO]-): 301.95 Å²
CCCCCCCCCCCCCCCCCCCCCCCCCCCCC(=O)N[C@@H](CO[C@@H]1O[C@H](CO)[C@@H](O)C(O)C1O)[C@H](O)CCCCCCCCCCCCCCC (some centres undefined) [GlcCer(47:00)] |  |  |  | collision cross section (N2) ([M+Na-2H2O]+): 313.61 Å²
CCCCC/C=C\C/C=C\CCCCCCCCCC(=O)O[C@H](COC(=O)CCCCCCC/C=C\CCCCCC)COP(=O)(O)O [PA(36:03)] |  | 270.97 | 271.74 | 
CCCCC/C=C\C/C=C\CCCCCCCCCCCC(=O)O[C@H](COC(=O)CCCCCCCCCCCCCCC)COP(=O)(O)O [PA(38:02)] |  | 279.74 |  | 
CCCCC/C=C\C/C=C\CCCCCCCCCC(=O)O[C@H](COC(=O)CCCCCCC/C=C\CCCCCCCC)COP(=O)(O)O [PA(38:03)] |  | 277.43 | 279.8 | 
CCCCC/C=C\C/C=C\C/C=C\C/C=C\CCCCCC(=O)O[C@H](COC(=O)CCCCCCC/C=C\CCCCCCCC)COP(=O)(O)O [PA(40:05)] |  | 281.79 | 283.07 | 
CCCCCCCC/C=C\CCCCCCCCCC(=O)O[C@H](COC(=O)CCCCCCCCCCC)COP(=O)([O-])OCC[N+](C)(C)C [PC(32:01)] | 276.5 | 279.16 |  | collision cross section (N2) ([M+HCOO]-): 284.71 Å²
CCCCC/C=C\C/C=C\CCCCCCCC(=O)O[C@H](COC(=O)CCCCCCCCCCCCC)COP(=O)([O-])OCC[N+](C)(C)C [PC(32:02)] |  | 276.86 |  | 
CCCCCC/C=C\CCCCCCCCCC(=O)O[C@H](COC(=O)CCCCCCC/C=C\CCCCCC)COP(=O)([O-])OCC[N+](C)(C)C [PC(34:02)] | 279.51 | 283.1 |  | collision cross section (N2) ([M+Cl]-): 289.37 Å²; collision cross section (N2) ([M+HCOO]-): 289.31 Å²; collision cross section (N2) ([M+K]+): 283.28 Å²
CCCC/C=C\CCCCCCCC(=O)OC[C@H](COP(=O)([O-])OCC[N+](C)(C)C)OC(=O)CCCCCCCCC/C=C\C/C=C\CCCCC [PC(34:03)] | 277.12 | 281.98 |  | collision cross section (N2) ([M+Cl]-): 287.96 Å²; collision cross section (N2) ([M+HCOO]-): 288.8 Å²
CCCCCCCC/C=C\CCCCCCCC(=O)O[C@H](COC(=O)CCCCCCCCCCCCCCCC)COP(=O)([O-])OCC[N+](C)(C)C [PC(35:01)] | 284.63 | 287.14 |  | 
CCCCCCCCCCC/C=C\CCCCC(=O)O[C@H](COC(=O)CCCCCCCCCCCCCCCCC)COP(=O)([O-])OCC[N+](C)(C)C [PC(36:01)] | 288.22 | 290.25 | 292.02 | collision cross section (N2) ([M+Cl]-): 296.27 Å²; collision cross section (N2) ([M+HCOO]-): 296.46 Å²; collision cross section (N2) ([M+K]+): 291.07 Å²
CCCCCCCC/C=C\C/C=C\CCCCC(=O)O[C@H](COC(=O)CCCCCCC/C=C\CCCCCCCC)COP(=O)([O-])OCC[N+](C)(C)C [PC(36:03)] |  | 287.02 | 288.51 | collision cross section (N2) ([M+Cl]-): 293.42 Å²; collision cross section (N2) ([M+HCOO]-): 293.56 Å²

SMILES | collision cross section (N2) ([M+H]+) [Å²] | collision cross section (N2) ([M+Na]+) [Å²] | collision cross section (N2) ([M+2Na-H]+) [Å²] | other results
CCCCC/C=C\C/C=C\CCCCCCCCCC(=O)O[C@H](COC(=O)CCCCCCCCCCCCCCCCC)COP(=O)([O-])OCC[N+](C)(C)C [PC(38:02)] |  |  |  | collision cross section (N2) ([M+Cl]-): 300.55 Å²
CCCCC/C=C\C/C=C\C/C=C\CCCCCCC(=O)O[C@H](COC(=O)CCCCCCC/C=C\CCCCCCCC)COP(=O)([O-])OCC[N+](C)(C)C [PC(38:04)] |  |  |  | collision cross section (N2) ([M+Cl]-): 298.46 Å²; collision cross section (N2) ([M+HCOO]-): 298.03 Å²
CCCCC/C=C\C/C=C\C/C=C\C/C=C\CCCC(=O)O[C@H](COC(=O)CCCCCCCCCCCCCCCCCCC)COP(=O)([O-])OCC[N+](C)(C)C [PC(40:04)] |  | 297.42 |  | 
CC/C=C\C/C=C\C/C=C\CCCCCCCC(=O)O[C@H](COC(=O)CCCCCCCCCCCCCCC)COP(=O)(O)OCCN [PE(34:03)] | 265.93 | 271.73 | 271.16 | collision cross section (N2) ([M-H]-): 263.76 Å²
CCCC/C=C\CCCCCCCC(=O)OC[C@H](COP(=O)(O)OCCN)OC(=O)CCCCCCCCCCCCCCCCCCCC [PE(35:01)] |  | 279.26 | 279.57 | 
CCCCC/C=C\C/C=C\CCCCCCCCCC(=O)O[C@H](COC(=O)CCCCCCC/C=C\CCCCCC)COP(=O)(O)OCCN [PE(36:03)] | 273.34 | 277.57 | 279.42 | collision cross section (N2) ([M+K]+): 278.94 Å²; collision cross section (N2) ([M-H]-): 269.84 Å²
CCCCCCCC/C=C\C/C=C\CCCCC(=O)OC[C@H](COP(=O)(O)OCCN)OC(=O)CCCC/C=C\C/C=C\CCCCCCCC [PE(36:04)] |  |  | 277.05 | collision cross section (N2) ([M+K]+): 277.24 Å²; collision cross section (N2) ([M-H]-): 269.7 Å²
CCCCC/C=C\C/C=C\C/C=C\CCCCCCC(=O)O[C@H](COC(=O)CCCCCCC/C=C\C/C=C\CCCCC)COP(=O)(O)OCCN [PE(38:05)] |  |  | 283.55 | collision cross section (N2) ([M+K]+): 282.77 Å²; collision cross section (N2) ([M-H]-): 274.82 Å²
CCCCC/C=C\C/C=C\C/C=C\C/C=C\CCCCCC(=O)O[C@H](COC(=O)CCCCCCC/C=C\C/C=C\CCCCC)COP(=O)(O)OCCN [PE(40:06)] |  |  | 287.86 | collision cross section (N2) ([M-H]-): 280.5 Å²
CCCCC/C=C\C/C=C\C/C=C\C/C=C\CCCCCC(=O)O[C@H](COC(=O)CCC/C=C\C/C=C\C/C=C\C/C=C\CCCCC)COP(=O)(O)OCCN [PE(42:08)] |  | 290.41 |  | 
CC/C=C\C/C=C\C/C=C\C/C=C\C/C=C\C/C=C\CCC(=O)O[C@H](COC(=O)CCCCCC/C=C\C/C=C\C/C=C\CCCCC)COP(=O)(O)OCCN [PE(42:09)] |  | 288.64 |  | 
CCCC/C=C\CCCCCCCC(=O)O[C@H](COCCCCCCCCCCCCCCCCCC)COP(=O)(O)OCCN [PE(o32:01)] |  |  | 268.35 | 
CCCCC/C=C\C/C=C\CCCCCCCC(=O)O[C@H](COCCCCCCCCCCCCCCCC)COP(=O)(O)OCCN [PE(o34:02)] |  | 273.65 | 273.55 | 
CCCCC/C=C\C/C=C\C/C=C\CCCCC(=O)O[C@H](COCCCCCCCCCCCCCCCCCC)COP(=O)(O)OCCN [PE(o36:03)] | 272.47 | 277.92 | 279.47 | 
CCCCC/C=C\C/C=C\C/C=C\C/C=C\CCCC(=O)O[C@H](COCCCCCCCCCCCCCCCC)COP(=O)(O)OCCN [PE(o36:04)] |  |  | 278.13 | 
CCCCC/C=C\C/C=C\C/C=C\C/C=C\C/C=C\CCC(=O)O[C@H](COCCCCCCCCCCCCCCCC)COP(=O)(O)OCCN [PE(o38:05)] |  |  | 282.48 | 
CCCCC/C=C\C/C=C\C/C=C\C/C=C\CCCCCC(=O)O[C@H](COCCCCCCCCCCCCCCCCCC)COP(=O)(O)OCCN [PE(o40:04)] |  |  | 293.52 | 
